# Measured values: patent US7655756B2 (Johnson & Johnson Pharmaceutical Research & Development, LLC, priority 2005, dated 2010)
# Entries after “also recorded” stand apart in the source; their conditions may differ.
# How the values were obtained:
# [1] = target: T1, ligand binding domain of ERRγ (Homo sapiens, UniProt P62508); assay: Thermal denaturation monitored by CD spectroscopy; conditions: data not shown
# T1 construct: 6His; made in house; host or cells: E. coli BL21(DE3)
# T1 sequence (P62508 229-458): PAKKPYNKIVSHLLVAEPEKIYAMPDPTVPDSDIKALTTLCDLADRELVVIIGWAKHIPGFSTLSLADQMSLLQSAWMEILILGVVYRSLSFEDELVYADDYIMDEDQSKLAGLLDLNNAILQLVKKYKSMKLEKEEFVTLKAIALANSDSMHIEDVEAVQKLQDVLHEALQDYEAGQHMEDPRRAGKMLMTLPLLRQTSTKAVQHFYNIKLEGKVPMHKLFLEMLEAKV
# Excerpt: Ligand binding energy adds directly to the ground state energy of a macromolecule and results in increased thermal stability. The degree of stabilization is proportional to the binding affinity of the ligand for the macromolecule.
# [2] = target: T2, ERRβ (Homo sapiens, UniProt O95718); assay: ThermoFluor thermal shift assay, ERRβ; assay type: binding
# T2 sequence (O95718 208-432 limits assumed): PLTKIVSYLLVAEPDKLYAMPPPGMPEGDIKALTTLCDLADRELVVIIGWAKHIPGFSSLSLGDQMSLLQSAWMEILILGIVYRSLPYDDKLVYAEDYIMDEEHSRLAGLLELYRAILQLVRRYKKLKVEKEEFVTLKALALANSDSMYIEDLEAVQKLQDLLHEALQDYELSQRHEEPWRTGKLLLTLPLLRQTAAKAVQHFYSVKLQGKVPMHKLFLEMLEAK
# [3] = target: T3, ERRα (Homo sapiens, UniProt P11474); assay: ThermoFluor thermal shift assay, ERRα; assay type: binding; conditions: 100 μM test compound, 0.1 mg/mL protein, 25 mM HEPES pH 8.0, 25 μM ANS, 2% DMSO, Tm free protein 54.4 °C
# T3 sequence (P11474 193-421 limits assumed): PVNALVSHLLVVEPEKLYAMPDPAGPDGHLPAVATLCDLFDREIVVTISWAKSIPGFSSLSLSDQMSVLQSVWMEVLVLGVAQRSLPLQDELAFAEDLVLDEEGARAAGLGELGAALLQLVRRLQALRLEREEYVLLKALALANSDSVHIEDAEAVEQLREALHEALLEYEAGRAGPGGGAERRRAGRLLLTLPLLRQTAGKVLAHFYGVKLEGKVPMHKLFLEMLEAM
# [4] = target: T4, ERα (Homo sapiens, UniProt P03372); assay: ThermoFluor thermal shift assay, ERα; assay type: binding
# T4 sequence (P03372 1-595): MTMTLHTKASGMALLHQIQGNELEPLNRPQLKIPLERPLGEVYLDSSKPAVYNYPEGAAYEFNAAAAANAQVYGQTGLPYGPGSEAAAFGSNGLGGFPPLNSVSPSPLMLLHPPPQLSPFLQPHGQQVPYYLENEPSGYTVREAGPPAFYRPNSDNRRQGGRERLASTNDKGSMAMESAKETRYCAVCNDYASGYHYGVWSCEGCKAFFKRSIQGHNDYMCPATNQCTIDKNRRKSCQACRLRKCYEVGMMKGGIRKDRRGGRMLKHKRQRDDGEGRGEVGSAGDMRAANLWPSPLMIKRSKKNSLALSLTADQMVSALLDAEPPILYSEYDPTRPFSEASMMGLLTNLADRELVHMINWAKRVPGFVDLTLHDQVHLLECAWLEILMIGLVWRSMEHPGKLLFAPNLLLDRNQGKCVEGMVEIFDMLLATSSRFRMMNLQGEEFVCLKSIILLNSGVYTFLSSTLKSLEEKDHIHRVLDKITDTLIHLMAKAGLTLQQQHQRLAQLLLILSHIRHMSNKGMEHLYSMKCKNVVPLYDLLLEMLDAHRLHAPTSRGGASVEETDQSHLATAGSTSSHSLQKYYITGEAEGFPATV
# [5] = target: T5, ERRγ-SRC2 complex (Homo sapiens, UniProt P62508); assay: TR-FRET co-activator recruitment assay; assay type: biochemical
# T5 construct: made in house; host or cells: E. coli BL21(DE3) (ERRγ LBD)
# T5 sequence (P62508 229-458): T1 sequence (P62508 229-458)
# Protocol: For FRET measurements, the reaction was buffered in 25 mM Tris pH 8, 2.5 mM Hepes, 20 mM KCl, 1 mM DTT, and 0.05 mg/mL delipidated BSA.
# Time-resolved Fluorescence resonance energy transfer (FRET) experiments were performed to examine the functional response of ERRγ ligands.
# For FRET measurements, the reaction was buffered in 25 mM Tris pH 8, 2.5 mM Hepes, 20 mM KCl, 1 mM DTT, and 0.05 mg/mL BSA (-lipids). […] Reactions were allowed to reach equilibrium at 25° C. for 4-18 hours before collecting data on the Analyst from LJL Biosystems (Molecular Devices Sunnyvale, Calif.). […] Dose response curves were fitted using a hyperbolic equation and the data reported is the average of three independent experiments.
# [6] = tested on: pBIND-Gal4-ERRγ; assay: Cell based reporter (trans-activation) assay in HEK293E cells; conditions: luciferase reporter, Gal4-ERRγ and pACT-SRC2, 24 hours of compound treatment
# Protocol: A cell based reporter assay was used to determine the functional response of the ERRγ hits. Transfections were performed in HEK293E cells that were maintained in DMEM supplemented in glutamine and 10% FBS. Co-transfections of 4 μg of a luciferase reporter plasmid and 4 μg of each pBIND-Gal4-ERRγ and pACT-SRC2 plasmids per T-75 flask were done using Lipofectamine as per manufacturers instructions. Twenty-four hours post-transfection, the cells were seeded in 96-well plates at density of 50,000 cells per well in assay media (DMEM phenol free, 5% charcoal stripped FBS). […] After 24 hours of compound treatment, cells were lysed and treated with the Promega Dual-Glo system. Firefly Luciferase activity was read using a luminescence plate reader, and data were normalized against Renilla luciferase activity. Data were fitted using subroutines available from GraphPad.
# [7] = target: ERβ (Homo sapiens, UniProt Q92731); assay: ThermoFluor thermal shift assay, ERβ; assay type: binding; conditions: 100 μM test compound; 0.1 mg/mL protein, 25 mM HEPES pH 8.0; Tm free protein 41.1 °C; read-out: ΔTm, thermal stabilization of ERβ
# Chain of ERβ (Q92731 whole entry, species assumed): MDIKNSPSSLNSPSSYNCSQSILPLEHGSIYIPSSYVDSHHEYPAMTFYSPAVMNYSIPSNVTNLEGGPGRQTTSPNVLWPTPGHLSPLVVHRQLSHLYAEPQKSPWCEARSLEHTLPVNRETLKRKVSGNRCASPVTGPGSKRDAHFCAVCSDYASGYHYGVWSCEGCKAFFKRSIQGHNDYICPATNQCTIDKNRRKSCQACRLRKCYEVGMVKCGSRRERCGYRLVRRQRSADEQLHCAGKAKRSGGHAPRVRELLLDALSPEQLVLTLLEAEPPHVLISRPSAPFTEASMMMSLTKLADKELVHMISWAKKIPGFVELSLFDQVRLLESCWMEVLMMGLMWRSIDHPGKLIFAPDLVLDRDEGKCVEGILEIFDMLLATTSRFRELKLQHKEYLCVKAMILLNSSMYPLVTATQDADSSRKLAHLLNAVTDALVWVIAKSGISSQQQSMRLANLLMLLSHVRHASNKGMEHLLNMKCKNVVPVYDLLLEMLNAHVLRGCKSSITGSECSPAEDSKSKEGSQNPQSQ
# [8] = target: T6, ERRγ (Homo sapiens, UniProt P62508); assay: Isothermal titration calorimetry; assay type: binding
# T6 construct: 6His; made in house; host or cells: E. coli BL21(DE3)
# T6 sequence (P62508 229-458): T1 sequence (P62508 229-458)
# Protocol: The heat of interaction of the ligands with ERRγ molecules was measured by using the Omega titration calorimeter from Microcal Inc. In a typical titration, 1.4 mL of a 20 μM protein solution is titrated with a ligand solution of ˜0.4 mM concentration using a 100 μL syringe by ˜20 injections of 5-6 μL each. This syringe is also used to mix the reactants completely in the sample cell by rotating it at 400 rpm. For each injection, the area under the resulting peak is proportional to the heat of interaction, Q. Once this heat is corrected for the titrant dilution and normalized by the titrant solution concentration it becomes equal to the binding enthalpy, ΔHb, under nonsaturating conditions. The precision of the heat of each injection is about 0.5 μcal. One method of determining ΔHb is to average several intermediate peaks from the different sites. In addition to the binding enthalpies, one can obtain binding affinities, and overall stoichiometries of the complexes. The experimental calorimetric binding isotherm is the dependence of the total heat, Qr, (or dQrldX T) on the total concentration of ligand added, Xr. The above three parameters for each type of site are determined iteratively using the Marquardt algorithms as described previously.
Compound,"Thermal stabilization of ERRγ by loss of α-helicity (CD), in words [1]","ΔTm, thermal stabilization of ERRβ ([2]; 100 μM test compound, 0.1 mg/mL protein, 25 mM HEPES pH 8.0, Tm free protein 47.5 °C) [°C]","Kd ([2]; calculated at reference temperature 25 °C from ΔTm of Table II, ΔHu 155 kcal/mol, read-out: Estimated dissociation constant, ERRβ) [nM]","ΔTm, thermal stabilization of ERRα [3] [°C]","ΔTm, thermal stabilization of ERα ([4]; pH 8) [°C]","ΔTm at 100 µM ([2]; 100 μM test compound, 0.1 mg/mL protein, 25 mM HEPES pH 8.0, Tm free protein 47.5 °C, read-out: ΔTm, thermal stabilization of ERRβ) [°C]","Enhancement in the affinity of the receptor for co-activator peptide fragments, in words [5]","Displacement of co-activator peptide from ERRγ (antagonism), in words ([5]; 6 nM ERRγ LBD, 6 nM GST-SRC-2 peptide)","Change in transcriptional activity in trans-activation cellular assay, in words [6]",ΔTm at 100 µM [7] [°C],"Kd ([8]; 20 μM protein titrated with ~0.4 mM ligand, read-out: Binding affinity by isothermal titration calorimetry) [nM]",Binding enthalpy ΔHb ([8]; isothermal titration calorimetry) [kcal/mol],"ΔTm at 100 µM ([3]; read-out: ΔTm, thermal stabilization of ERRα) [°C]","ΔTm at 100 µM ([4]; 100 μM test compound, 0.1 mg/mL protein, 25 mM HEPES pH 8.0, Tm free protein 39.1 °C, read-out: ΔTm, thermal stabilization of ERα) [°C]"
4-hydroxytamoxifen [4OHT],positive thermal stabilization,2.15,2640,−0.1,17.1,–,–,–,–,–,–,–,–,–
"CC(C)(c1ccc(O)cc1)c1ccc(O)cc1 [BPA, bisphenol A]",–,–,–,–,–,-0.1,not able to demonstrate,ineffective; also recorded: neither ligand displaced co-activator peptide,not able to demonstrate,7.4,70,~-21,0,4.4
